According to US20260226084A1, “DUAL RAF AND TUBULIN INHIBITORS AND METHODS OF USE THEREOF” (Deciphera Pharmaceuticals, LLC, priority 2023, published 2026):
Read-outs that look alike come from different tables or passages of the source.

How the values were obtained:
[1] = target: T1, B-Raf kinase (SEQ ID NO: 1) (Homo sapiens, UniProt P15056); assay: Biochemical Assay for B-Raf (coupled pyruvate kinase/lactate dehydrogenase assay); settings: 1 mM ATP; read-out: BRAF (inhibition of biochemical activity, IC50)
T1 construct: GST (N); purchased Sigma

[2] = target: T2, C-Raf kinase (SEQ ID NO: 2) (Homo sapiens, UniProt P04049, Y340D/Y341D); assay: Biochemical Assay for C-Raf (coupled pyruvate kinase/lactate dehydrogenase assay); settings: 1 mM ATP; read-out: CRAF (inhibition of biochemical activity, IC50)
T2 construct: C-Raf residues 306-end; Y340D, Y341D with; GST (N); purchased Sigma

[3] = test system: Pa16c cells; assay: Pa16c Cell Proliferation Assay; assay type: cell-based; settings: Table 2, read-out: Inhibition of cell proliferation in Pa16c (IC50 class)
Experimental: Pa16c cells are obtained from Dr. Channing Der, University of North Carolina at Chapel Hill. Briefly, cells are grown in Dulbecco's Modified Eagle Medium supplemented with 10% characterized fetal bovine serum (Invitrogen, Carlsbad, CA) and 1% Penicillin/Streptomycin/L-Glutamine at 37° C., 5% CO2, and 95% humidity. Cells are expanded until reaching 70-95% confluency at which point they are sub-cultured or harvested for assay use. A serial dilution of test compound is dispensed into a 384-well black clear bottom plate in triplicate. 750 cells are added per well in 50 μL complete growth medium in the 384-well plate. Plates are incubated for 67 to 72 h at 37° C., 5% CO2, and 95% humidity. At the end of the incubation, 40 μL of a 440 μM solution of resazurin (Sigma, St. Louis, MO) in PBS is added to each well of the plate and plates are incubated for an additional 18 to 24 hours at 37° C., 5% CO2, and 95% humidity. Plates are read on a Synergy2 or equivalent reader (Biotek, Winooski, VT) using an excitation of 540 nm and an emission of 600 nm. Data is analyzed using Prism software (Graphpad, San Diego, CA) to calculate IC50 values.

[4] = test system: MiaPaca-2 cells; assay: MiaPaca-2 Cell Proliferation Assay; assay type: cell-based; settings: Table 2, read-out: Inhibition of cell proliferation in MiaPaca-2 (IC50 class)
Experimental: Miapaca-2 cells (catalog #CRL-1420) are obtained from the American Type Culture Collect (ATTC, Manassas, VA). Briefly, cells were grown in DMVEM supplemented with 10 characterized fetal bovine serum (Invitrogen, Carlsbad, CA), 2.5% New Zealand sourced horse serum and 1 Penicillin/Streptomycin/L-Glutamine at 37° C., 5 CO2, and 95% humidity. Cells are expanded until reaching 70-95% confluency at which point they are sub-cultured or harvested for assay use. A serial dilution of test compound is dispensed into a 96-well black clear bottom plate in triplicate. Three thousand cells are added per well in 200 μL complete growth medium in the 96-well plate. Plates are incubated for 67 to 72 h at 37° C., 5% CO2, and 95% humidity. At the end of the incubation, 40 μL of a 440 μM solution of resazurin (Sigma, St. Louis, MO) in PBS is added to each well of the plate and plates are incubated for an additional 5 to 6 h at 37° C., 5% CO2, and 95% humidity. Plates are read on a Synergy2 or equivalent reader (Biotek, Winooski VT) using an excitation of 540 nm and an emission of 600 nm. Data is analyzed using Prism software (Graphpad, San Diego, CA) to calculate IC50 values.

[5] = test system: HPAF-II cells; assay: HPAF-II Cell Proliferation Assay; assay type: cell-based; settings: HPAF-II cells, Table 2, read-out: Inhibition of cell proliferation in HPAF-II (IC50 class)
Experimental: HPAF-II cells (catalog #CRL-1997) are obtained from the American Type Culture Collect (ATCC, Manassas, VA). Briefly, cells are grown in Minimum Essential Media supplemented with 10% characterized fetal bovine serum (Invitrogen, Carlsbad, CA) and 1% Penicillin/Streptomycin/L-Glutamine at 37° C., 5% CO2, and 95% humidity. Cells are expanded until reaching 70-95% confluency at which point they are sub-cultured or harvested for assay use. A serial dilution of test compound is dispensed into a 384-well black clear bottom plate in triplicate. 750 cells are added per well in 50 μL complete growth medium in the 384-well plate. Plates are incubated for 115 to 120 hours at 37° C., 5% CO2, and 95% humidity. At the end of the incubation, 40 μL of a 440 μM solution of resazurin (Sigma, St. Louis, MO) in PBS is added to each well of the plate and plates are incubated for an additional 18 to 24 hours at 37° C., 5% CO2, and 95% humidity. Plates are read on a Synergy2 or equivalent reader (Biotek, Winooski, VT) using an excitation of 540 nm and an emission of 600 nm. Data is analyzed using Prism software (Graphpad, San Diego, CA) to calculate IC50 values.

[6] = test system: HCT-116 cells; assay: HCT-116 Cell Proliferation Assay; assay type: cell-based; settings: Table 2, read-out: Inhibition of cell proliferation in HCT-116 (IC50 class)
Experimental: HCT-116 cells (catalog #CCL-247) are obtained from the American Type Culture Collect (ATCC, Manassas, VA). Briefly, cells are grown in McCoy's 5A supplemented with 10% characterized fetal bovine serum (Invitrogen, Carlsbad, CA) and 1% Penicillin/Streptomycin/L-Glutamine at 37° C., 5% CO2, and 95% humidity. Cells are expanded until reaching 70-95% confluency at which point they are subcultured or harvested for assay use. A serial dilution of test compound is dispensed into a 384-well black clear bottom plate in triplicate. 375 cells are added per well in 50 μL complete growth medium in the 384-well plate. Plates are incubated for 67 to 72 hours at 37° C., 5% CO2, and 95% humidity. At the end of the incubation, 40 μL of a […] solution of resazurin (Sigma, St. Louis, MO) in PBS is added to each well of the plate and plates are incubated for an additional 4 to 5 h at 37° C., 5% CO2, and 95% humidity. Plates are read on a Synergy2 or equivalent reader (Biotek, Winooski, VT) using an excitation of 540 nm and an emission of 600 nm. Data is analyzed using Prism software (Graphpad, San Diego, CA) to calculate IC50 values.

[7] = Homo sapiens, MIA PaCa-2, MiaPaca-2 cells
[8] = Homo sapiens, HCT-116, HCT-116 cells

T2 sequence (P04049 307-648 Y340D/Y341D): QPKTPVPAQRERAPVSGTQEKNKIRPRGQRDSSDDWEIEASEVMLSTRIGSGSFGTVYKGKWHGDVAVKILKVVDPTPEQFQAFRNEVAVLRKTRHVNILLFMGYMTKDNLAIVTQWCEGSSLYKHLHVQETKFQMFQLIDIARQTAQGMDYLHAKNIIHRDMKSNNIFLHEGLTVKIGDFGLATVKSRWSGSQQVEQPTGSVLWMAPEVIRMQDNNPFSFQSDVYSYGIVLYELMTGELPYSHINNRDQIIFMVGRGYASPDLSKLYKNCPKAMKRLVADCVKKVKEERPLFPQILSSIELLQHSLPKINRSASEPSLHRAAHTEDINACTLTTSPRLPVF
T1 sequence (P15056 416-766): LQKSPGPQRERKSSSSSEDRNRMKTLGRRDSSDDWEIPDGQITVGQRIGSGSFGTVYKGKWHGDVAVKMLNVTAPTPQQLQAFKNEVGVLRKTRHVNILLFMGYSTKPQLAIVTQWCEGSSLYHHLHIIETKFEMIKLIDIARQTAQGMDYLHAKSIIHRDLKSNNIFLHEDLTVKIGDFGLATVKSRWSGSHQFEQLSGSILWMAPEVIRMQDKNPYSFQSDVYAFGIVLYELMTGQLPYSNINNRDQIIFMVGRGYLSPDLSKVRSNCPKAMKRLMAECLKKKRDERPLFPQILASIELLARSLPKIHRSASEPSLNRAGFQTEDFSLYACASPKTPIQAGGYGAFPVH

SMILES | IC50 [1] | IC50 [2] | IC50 [3] | IC50 [4, 7] | IC50 ([5]; Homo sapiens, HPAF-II) | IC50 [6, 8] | IC50 ([4]; MiaPaca-2 cells) | IC50 [5] | IC50 ([6]; HCT-116 cells)
Cc1ccc(NC(=O)c2cc(C(F)(F)F)cnn2)cc1-c1ccnc(-c2ccnc(/N=C/N(C)C)c2)c1 [Example 37, (E)-N-(3-(2′-(((dimethylamino)methylene)amino)-[2,4′-bipyridin]-4-yl)-4-methylphenyl)-5-(trifluoromethyl)pyridazine-3-carboxamide] | < 100 nM | < 100 nM | < 100 nM | < 100 nM | 1000 to 10000 nM | 100 to 500 nM | – | – | –
CC(=O)Nc1cc(-c2cc(-c3cc(NC(=O)c4ccc(C(F)F)nc4)ccc3C)ccn2)ccn1 [Example 1, N-(3-(2′-acetamido-[2,4′-bipyridin]-4-yl)-4-methylphenyl)-6-(difluoromethyl)nicotinamide] | < 100 nM | < 100 nM | < 100 nM | < 100 nM | < 100 nM | < 100 nM | – | – | –
Cc1ccc(NC(=O)c2cc(C(C)(F)F)cnn2)cc1-c1ccnc(-c2cnsc2)c1 [Example 137] | 100 to 500 nM | < 100 nM | 500 to 1000 nM | 100 to 500 nM | 100 to 500 nM | 100 to 500 nM | – | – | –
CONc1cc(-c2cc(-c3cc(NC(=O)c4cc(C(F)(F)F)cnn4)ccc3C)ccn2)ccn1 [Example 128, N-(3-(2′-(methoxyamino)-[2,4′-bipyridin]-4-yl)-4-methylphenyl)-5-(trifluoromethyl)pyridazine-3-carboxamide] | 100 to 500 nM | 100 to 500 nM | 500 to 1000 nM | 100 to 500 nM | 100 to 500 nM | 100 to 500 nM | – | – | –
Cc1ccc(NC(=O)c2cc(C(C)(F)F)cnn2)cc1-c1ccnc(-c2cscn2)c1 [Example 143] | 1000 to 10000 nM | 1000 to 10000 nM | 1000 to 10000 nM | 100 to 500 nM | 100 to 500 nM | 100 to 500 nM | – | – | –
Cc1ccc(NC(=O)c2cc(C(F)(F)F)cnn2)cc1-c1ccnc(-c2cnn(C)c2)c1 [Example 114] | 100 to 500 nM | < 100 nM | 100 to 500 nM | 100 to 500 nM | 100 to 500 nM | 100 to 500 nM | – | – | –
Cc1ccc(NC(=O)c2cc(C#N)cnn2)cc1-c1cc(N[C@H](C)CO)nc(-c2ccnc(NC(=O)C3CC3)c2)c1 [Example 151] | 500 to 1000 nM | 500 to 1000 nM | 1000 to 10000 nM | 1000 to 10000 nM | 1000 to 10000 nM | 1000 to 10000 nM | – | – | –
Cc1ccc(NC(=O)c2cccnn2)cc1-c1ccnc(-c2ccnc(NC(=O)C3CC3)c2)c1 [Example 83] | 1000 to 10000 nM | 100 to 500 nM | 1000 to 10000 nM | 1000 to 10000 nM | 1000 to 10000 nM | 1000 to 10000 nM | – | – | –
Cc1ccc(NC(=O)c2cc(C(F)(F)F)cnn2)cc1-c1ccnc(-c2cncn2C)c1 [Example 135] | < 100 nM | < 100 nM | 100 to 500 nM | 100 to 500 nM | 100 to 500 nM | 100 to 500 nM | – | – | –
Cc1ccc(NC(=O)c2cc(C(F)(F)F)cnn2)cc1-c1cncc(-c2cc(NC(=O)C(F)(F)F)ncn2)c1 [Example 125] | < 100 nM | < 100 nM | 500 to 1000 nM | 500 to 1000 nM | 500 to 1000 nM | 500 to 1000 nM | – | – | –
Cc1ccc(NC(=O)c2cc(C(C)(C)F)cnn2)cc1-c1cncc(-c2cc(NC(=O)C3CC3)ncn2)c1 [Example 62] | < 100 nM | < 100 nM | 500 to 1000 nM | 100 to 500 nM | < 100 nM | < 100 nM | – | – | –
COC(=O)Nc1cc(-c2cncc(-c3cc(NC(=O)c4ccc(C(F)(F)F)nc4)ccc3C)c2)ncn1 [Example 76] | < 100 nM | < 100 nM | 1000 to 10000 nM | – | – | – | 1000 to 10000 nM | 1000 to 10000 nM | 1000 to 10000 nM
Cc1ccc(NC(=O)c2cc3c(nn2)CCC3)cc1-c1ccnc(-c2ccnc(NC(=O)C3CC3)c2)c1 [Example 98] | < 100 nM | < 100 nM | 1000 to 10000 nM | 1000 to 10000 nM | 1000 to 10000 nM | 1000 to 10000 nM | – | – | –
O=C(Nc1ccc(F)c(-c2ccnc(-c3ccnc(NC(=O)C4CC4)c3)c2)c1)c1cc(C(F)(F)F)cnn1 [Example 47] | < 100 nM | < 100 nM | 1000 to 10000 nM | 1000 to 10000 nM | 1000 to 10000 nM | 1000 to 10000 nM | – | – | –
Cc1ccc(NC(=O)c2cc(C3CC3)cnn2)cc1-c1ccnc(-c2ccsc2)c1 [Example 144] | 1000 to 10000 nM | 1000 to 10000 nM | 100 to 500 nM | 100 to 500 nM | 100 to 500 nM | 100 to 500 nM | – | – | –
Cc1ccc(NC(=O)c2cc(C(F)(F)F)cnn2)cc1-c1ccnc(-c2cnn(C)n2)c1 [Example 139] | 100 to 500 nM | < 100 nM | 500 to 1000 nM | 100 to 500 nM | 100 to 500 nM | 100 to 500 nM | – | – | –
Cc1ccc(NC(=O)c2cncc(C(C)(C)C#N)c2)cc1-c1cncc(-c2ccnc(NC(=O)C3CC3)c2)n1 [Example 108] | < 100 nM | < 100 nM | 1000 to 10000 nM | 100 to 500 nM | 100 to 500 nM | < 100 nM | – | – | –
CNc1cc(-c2cc(-c3cc(NC(=O)c4cc(C(F)(F)F)cnn4)ccc3C)ccn2)ccn1 [Example 50] | < 100 nM | 100 to 500 nM | 100 to 500 nM | < 100 nM | 100 to 500 nM | 100 to 500 nM | – | – | –
Cc1ccc(NC(=O)c2cnc(C(F)(F)F)nc2)cc1-c1cc(N[C@H](C)CO)nc(-c2cn[nH]c2)c1 [Example 133] | 100 to 500 nM | < 100 nM | 1000 to 10000 nM | 100 to 500 nM | 1000 to 10000 nM | 100 to 500 nM | – | – | –
